Where a name gives a salt, the structure may show the parent alone.
Assay: Example 1: multiple-dose randomized 3-way crossover PK study of two IV tramadol regimens vs 100 mg oral q6h
Settings: for theoretical accumulation factor: 1/[1-exp(−ln 2*tau/T1/2)], T1/2 approximately […]
[1] = human, plasma, iv, 50 mg, plasma concentration, Mean, 50 mg IV Dose (h 0, 2, 4, then q4h to h 44), Time […]

Protocol: A fitted curve was obtained because the second oral peak was not measured in the study. For the modeling portion of the analysis, a validated Phoenix® WinNonlin® program version 6.4 (Certara) was used for PK analysis, simulation, graphics, tables and statistical calculations. […] For purposes of nonlinear regression, the data were weighted as 1/observed. Predicted concentration-time data were calculated based on the individual fitted PK parameters.

COc1cccc([C@]2(O)CCCC[C@H]2CN(C)C)c1 (racemic) [Tramadol, (±)cis-2-[(dimethylamino)methyl]-1-(3-methoxyphenyl) cyclohexanol hydrochloride]
predicted exposure over 12 h at steady state (50 mg IV q4h, 3 x AUCtau n): 6684 ng·h/mL
RAC(trough) (50 mg IV regimen (h 0, 2, 4, then q4h to h 44), mean): 2.1937
Css (50 mg IV regimen (h 0, 2, 4, then q4h to h 44), plasma, mean): 557 ng/mL
predicted exposure over 12 h at steady state (75 mg IV q6h, 2 x AUCtau n): 6072 ng·h/mL
RAC(trough) (75 mg IV regimen (h 0, 3, 6, then q6h to h 42), mean): 1.5026
Css (75 mg IV regimen (h 0, 3, 6, then q6h to h 42), plasma, mean): 506 ng/mL
AUC24-48 (75 mg IV regimen (h 0, 3, 6, then q6h to h 42), plasma, mean, hydrochloride): 9402 ng·h/mL
predicted exposure over 12 h at steady state (100 mg PO q6h, 2 x AUCtau n): 6950 ng·h/mL
RAC(trough) (100 mg oral q6h to h 42, mean): 2.5580
Css (100 mg oral q6h to h 42, plasma, mean): 579 ng/mL
theoretical accumulation factor (4-h dosing interval): 2.42
theoretical accumulation factor (6-h dosing interval): 1.82
AUC(0-t) (human, plasma, iv, 50 mg, AUC0-24, 50 mg IV regimen (h 0, 2, 4, then q4h to h 44), plasma, mean): 9520 ng·h/mL
AUC(0-t) (human, plasma, iv, 50 mg, AUC0-48, 50 mg IV regimen (h 0, 2, 4, then q4h to h 44), plasma, mean): 20500 ng·h/mL
AUC (human, plasma, iv, 50 mg, AUC24-48, 50 mg IV regimen (h 0, 2, 4, then q4h to h 44), plasma, mean): 11000 ng·h/mL
AUC (human, plasma, iv, 50 mg, AUCtau 1, 50 mg IV regimen (h 0, 2, 4, then q4h to h 44), first dosing interval, mean): 624 ng·h/mL
AUC (human, plasma, iv, 50 mg, AUCtau n, 50 mg IV regimen (h 0, 2, 4, then q4h to h 44), last dosing interval, mean): 2230 ng·h/mL
concentration at 2 h (human, plasma, iv, 50 mg, C2, 50 mg IV regimen (h 0, 2, 4, then q4h to h 44), plasma, mean): 203 ng/mL
concentration at 48 h (human, plasma, iv, 50 mg, C48 (T48), 50 mg IV regimen (h 0, 2, 4, then q4h to h 44), plasma, mean): 448 ng/mL
concentration at 1 h (human, plasma, iv, 50 mg, C1 h, 50 mg IV regimen (h 0, 2, 4, then q4h to h 44), plasma, mean): 243 ng/mL
Cmax (human, plasma, iv, 50 mg, Cmax(0-2), 50 mg IV regimen (h 0, 2, 4, then q4h to h 44), first dose, plasma, mean): 294 ng/mL
Cmax (human, plasma, iv, 50 mg, Cmax(2-4), 50 mg IV regimen (h 0, 2, 4, then q4h to h 44), plasma, mean): 479 ng/mL
Cmax (human, plasma, iv, 50 mg, Cmax(44-48), 50 mg IV regimen (h 0, 2, 4, then q4h to h 44), steady-state, plasma, mean): 711 ng/mL
Cmax (human, plasma, iv, 50 mg, Cmax, 50 mg IV regimen (h 0, 2, 4, then q4h to h 44), plasma, mean): 736 ng/mL
Tmax (human, plasma, iv, 50 mg, Tmax(0-2), 50 mg IV regimen (h 0, 2, 4, then q4h to h 44), plasma, mean): 0.54 h
Tmax (human, plasma, iv, 50 mg, Tmax(2-4), 50 mg IV regimen (h 0, 2, 4, then q4h to h 44), plasma, mean): 2.36 h
Tmax (human, plasma, iv, 50 mg, Tmax(44-48), 50 mg IV regimen (h 0, 2, 4, then q4h to h 44), plasma, mean): 44.3 h
Tmax (human, plasma, iv, 50 mg, Tmax, 50 mg IV regimen (h 0, 2, 4, then q4h to h 44), plasma, mean): 30 h
concentration at 0 h (human, plasma, iv, 50 mg, plasma concentration, Mean, 50 mg IV Dose (h 0, 2, 4, then q4h to h 44), Time 0.00 hr): 0.726 ng/mL
concentration at 0.25 h (human, plasma, iv, 50 mg, plasma concentration, Mean, 50 mg IV Dose (h 0, 2, 4, then q4h to h 44), Time 0.250 hr): 253 ng/mL
concentration at 0.5 h (human, plasma, iv, 50 mg, plasma concentration, Mean, 50 mg IV Dose (h 0, 2, 4, then q4h to h 44), Time 0.500 hr): 261 ng/mL
concentration at 0.75 h (human, plasma, iv, 50 mg, plasma concentration, Mean, 50 mg IV Dose (h 0, 2, 4, then q4h to h 44), Time 0.750 hr): 243 ng/mL
concentration at 1 h (human, plasma, iv, 50 mg, plasma concentration, Mean, 50 mg IV Dose (h 0, 2, 4, then q4h to h 44), Time 1.00 hr): 231 ng/mL
concentration at 2 h (human, plasma, iv, 50 mg, plasma concentration, Mean, 50 mg IV Dose (h 0, 2, 4, then q4h to h 44), Time 2.00 hr): 188 ng/mL
concentration at 2.5 h (human, plasma, iv, 50 mg, plasma concentration, Mean, 50 mg IV Dose (h 0, 2, 4, then q4h to h 44), Time 2.50 hr): 442 ng/mL
concentration at 4 h (human, plasma, iv, 50 mg, plasma concentration, Mean, 50 mg IV Dose (h 0, 2, 4, then q4h to h 44), Time 4.00 hr): 335 ng/mL
concentration at 4.25 h (human, plasma, iv, 50 mg, plasma concentration, Mean, 50 mg IV Dose (h 0, 2, 4, then q4h to h 44), Time 4.25 hr): 662 ng/mL
concentration at 4.5 h (human, plasma, iv, 50 mg, plasma concentration, Mean, 50 mg IV Dose (h 0, 2, 4, then q4h to h 44), Time 4.50 hr): 592 ng/mL
concentration at 5 h (human, plasma, iv, 50 mg, plasma concentration, Mean, 50 mg IV Dose (h 0, 2, 4, then q4h to h 44), Time 5.00 hr): 527 ng/mL
concentration at 6 h (human, plasma, iv, 50 mg, plasma concentration, Mean, 50 mg IV Dose (h 0, 2, 4, then q4h to h 44), Time 6.00 hr): 433 ng/mL
concentration at 8 h (human, plasma, iv, 50 mg, plasma concentration, Mean, 50 mg IV Dose (h 0, 2, 4, then q4h to h 44), Time 8.00 hr): 346 ng/mL
concentration at 12 h (human, plasma, iv, 50 mg, plasma concentration, Mean, 50 mg IV Dose (h 0, 2, 4, then q4h to h 44), Time 12.0 hr): 353 ng/mL
concentration at 20 h (human, plasma, iv, 50 mg, plasma concentration, Mean, 50 mg IV Dose (h 0, 2, 4, then q4h to h 44), Time 20.0 hr): 419 ng/mL
concentration at 32 h (human, plasma, iv, 50 mg, plasma concentration, Mean, 50 mg IV Dose (h 0, 2, 4, then q4h to h 44), Time 32.0 hr): 422 ng/mL
concentration at 40 h (human, plasma, iv, 50 mg, plasma concentration, Mean, 50 mg IV Dose (h 0, 2, 4, then q4h to h 44), Time 40.0 hr): 424 ng/mL
concentration at 44 h (human, plasma, iv, 50 mg, plasma concentration, Mean, 50 mg IV Dose (h 0, 2, 4, then q4h to h 44), Time 44.0 hr): 424 ng/mL
concentration at 44.3 h (human, plasma, iv, 50 mg, plasma concentration, Mean, 50 mg IV Dose (h 0, 2, 4, then q4h to h 44), Time 44.3 hr): 697 ng/mL
concentration at 44.5 h (human, plasma, iv, 50 mg, plasma concentration, Mean, 50 mg IV Dose (h 0, 2, 4, then q4h to h 44), Time 44.5 hr): 655 ng/mL
concentration at 44.8 h (human, plasma, iv, 50 mg, plasma concentration, Mean, 50 mg IV Dose (h 0, 2, 4, then q4h to h 44), Time 44.8 hr): 645 ng/mL
concentration at 45 h (human, plasma, iv, 50 mg, plasma concentration, Mean, 50 mg IV Dose (h 0, 2, 4, then q4h to h 44), Time 45.0 hr): 610 ng/mL
concentration at 45.5 h (human, plasma, iv, 50 mg, plasma concentration, Mean, 50 mg IV Dose (h 0, 2, 4, then q4h to h 44), Time 45.5 hr): 553 ng/mL
concentration at 46 h (human, plasma, iv, 50 mg, plasma concentration, Mean, 50 mg IV Dose (h 0, 2, 4, then q4h to h 44), Time 46.0 hr): 528 ng/mL
concentration at 47 h (human, plasma, iv, 50 mg, plasma concentration, Mean, 50 mg IV Dose (h 0, 2, 4, then q4h to h 44), Time 47.0 hr): 490 ng/mL
concentration at 16 h [1]: 388 ng/mL
concentration at 24 h [1]: 413 ng/mL
concentration at 48 h [1]: 434 ng/mL
AUC(0-t) (human, plasma, iv, 75 mg, AUC0-24, 75 mg IV regimen (h 0, 3, 6, then q6h to h 42), plasma, mean): 9930 ng·h/mL
AUC(0-t) (human, plasma, iv, 75 mg, AUC0-48, 75 mg IV regimen (h 0, 3, 6, then q6h to h 42), plasma, mean): 19300 ng·h/mL
AUC (human, plasma, iv, 75 mg, AUC24-48, 75 mg IV regimen (h 0, 3, 6, then q6h to h 42), plasma, mean): 9930 ng·h/mL
AUC (human, plasma, iv, 75 mg, AUCtau 1, 75 mg IV regimen (h 0, 3, 6, then q6h to h 42), first dosing interval, mean): 1250 ng·h/mL
AUC (human, plasma, iv, 75 mg, AUCtau n, 75 mg IV regimen (h 0, 3, 6, then q6h to h 42), last dosing interval, mean): 3040 ng·h/mL
concentration at 3 h (human, plasma, iv, 75 mg, C3, 75 mg IV regimen (h 0, 3, 6, then q6h to h 42), plasma, mean): 237 ng/mL
concentration at 48 h (human, plasma, iv, 75 mg, C48 (T48), 75 mg IV regimen (h 0, 3, 6, then q6h to h 42), plasma, mean): 354 ng/mL
concentration at 1 h (human, plasma, iv, 75 mg, C1 h, 75 mg IV regimen (h 0, 3, 6, then q6h to h 42), plasma, mean): 361 ng/mL
Cmax (human, plasma, iv, 75 mg, Cmax(0-3), 75 mg IV regimen (h 0, 3, 6, then q6h to h 42), first dose, plasma, mean): 484 ng/mL
Cmax (human, plasma, iv, 75 mg, Cmax(3-6), 75 mg IV regimen (h 0, 3, 6, then q6h to h 42), plasma, mean): 756 ng/mL
